Read-outs that look alike come from different tables or passages of the source.
Experiments:
[1] = molecular target: dopamine D2LR (Homo sapiens, UniProt P14416); experiment: Radioligand binding assay, [3H]-raclopride displacement; conditions: mean ± SD from two independent measurements; read-out: Ki D2
Description: (§1) Cell pellets were thawed and homogenized in 10 vol of assay buffer using an Ultra Turrax tissue homogenizer and centrifuged twice at 35 000 g for 15 min at 4 °C, with incubation for 15 min at 37 °C in between. The composition of the assay buffers was as follows: for 5-HT1AR: 50 mM Tris HCl, 0.1 mM EDTA, 4 mM MgCl2, 10 μM pargyline and 0.1% ascorbate; for 5-HT2AR: 50 mM Tris HCl, 0.1 mM EDTA, 4 mM MgCl2 and 0.1% ascorbate; for 5- HT7bR: 50 mM Tris HCl, 4 mM MgCl2, […] and 0.1% ascorbate; and for dopamine D2LR: 50 mM Tris HCl, 1 mM EDTA, 4 mM MgCl2, 120 mM NaCl, 5 mM KCl, 1.5 mM CaCl2 and 0.1% ascorbate. All assays were incubated in a total volume of […] in 96-well microtiter plates for 1 h at 37 °C, except 5-HT2AR which was incubated at 27 °C. The process of equilibration was terminated by rapid filtration through Unifilter plates with a 96-well cell harvester, and radioactivity retained on the filters was quantified on a Microbeta plate reader (PerkinElmer, USA). For displacement studies, the assay samples contained as radioligands (PerkinElmer, USA): 2.5 nM [^3H]-8-OH-DPAT (135.2 Ci/mmol) for 5-HT1AR; 1 nM [3H]-ketanserin (53.4 Ci/mmol) for 5- HT2AR; 0.8 nM [3H]-5- CT (39.2 Ci/mmol) for 5-HT7R or 2.5 nM [3H]-raclopride (72 Ci/mmol) for D2LR. Nonspecific binding was defined with […] of 5-HT in 5-HT7R binding experiments, whereas […] were used in 5-HT2AR and D2L assays, respectively. Each compound was tested in triplicate at 7 concentrations (10^–10–10^–4 M). The inhibition constants (Ki) were calculated using the Cheng–Prusoff equation.[48] Results were expressed as means of at least two separate experiments.

[2] = molecular target: T1, 5-HT1AR (Homo sapiens, UniProt P08908); experiment: Radioligand binding assay, [3H]-8-OH-DPAT displacement; conditions: mean ± SD from two independent measurements; read-out: Ki 5-HT1A
T1 sequence (P08908 1-422): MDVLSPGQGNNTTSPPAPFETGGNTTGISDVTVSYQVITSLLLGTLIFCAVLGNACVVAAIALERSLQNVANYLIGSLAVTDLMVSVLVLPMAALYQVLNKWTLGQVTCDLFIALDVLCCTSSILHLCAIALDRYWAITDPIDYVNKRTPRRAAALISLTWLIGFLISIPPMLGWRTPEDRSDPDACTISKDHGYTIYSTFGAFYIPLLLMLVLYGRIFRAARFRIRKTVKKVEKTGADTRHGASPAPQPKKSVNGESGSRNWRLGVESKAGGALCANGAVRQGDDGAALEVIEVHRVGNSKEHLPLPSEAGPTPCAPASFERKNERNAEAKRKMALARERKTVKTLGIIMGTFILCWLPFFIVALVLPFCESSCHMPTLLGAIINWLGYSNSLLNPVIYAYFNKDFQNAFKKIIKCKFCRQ
Description: as §1

[3] = molecular target: T2, 5-HT7R (Homo sapiens, UniProt P34969); experiment: Radioligand binding assay, [3H]-5-CT displacement; conditions: mean ± SD from two independent measurements; read-out: Ki 5-HT7
T2 sequence (P34969 1-432): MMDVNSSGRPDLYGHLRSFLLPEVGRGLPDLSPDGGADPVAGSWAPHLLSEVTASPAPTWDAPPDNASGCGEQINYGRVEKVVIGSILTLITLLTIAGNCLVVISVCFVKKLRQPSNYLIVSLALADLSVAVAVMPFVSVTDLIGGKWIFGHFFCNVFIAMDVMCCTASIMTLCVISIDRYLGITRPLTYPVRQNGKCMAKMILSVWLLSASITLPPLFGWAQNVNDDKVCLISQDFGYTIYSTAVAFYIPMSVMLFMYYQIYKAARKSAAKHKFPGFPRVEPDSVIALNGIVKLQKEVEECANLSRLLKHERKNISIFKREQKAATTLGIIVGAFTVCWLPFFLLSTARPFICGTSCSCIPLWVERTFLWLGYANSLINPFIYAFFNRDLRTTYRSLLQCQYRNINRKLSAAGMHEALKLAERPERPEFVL
Description: as §1

[4] = tested on: immobility time; experiment: Forced swim test (FST, Porsolt's test) in mice; type: in vivo; conditions: 60 min before test
Description: (§2) The behavioral experiments were performed on male BalbC mice weighing 20–25 g, n = 333. The animals were purchased from the Animal House at the Faculty of Pharmacy, Jagiellonian University Medical College, Krakow, Poland. Mice were kept in groups of ten in Makrolon type 3 cages (dimensions 26.5 × 15 × 42 cm). The animals were kept in an environmentally controlled room (ambient temperature 22 ± 2 °C; relative humidity 50–60%; 12:12 light: dark cycle; and lights on at 8:00). They were allowed to acclimatize with the environment enriched by nesting material, tooth grinding material, houses, and toys for 1 week before commencement of the experiments. During acclimatization, mice were accustomed to the presence of female experimenters and their appropriate manner of animals’ restraint, i.e., cupping each separate mouse in open hands, according to the 3Rs recommendations (handling).[50],[51] Standard laboratory food (Sniff M-Z) and filtered water were freely available. All the experiments were conducted in the light phase between 9 AM and 2 PM. Experimental groups consisted of 6–10 randomly selected animals, depending on the experiment, and each animal was used only once. The experiments were performed by an observer who was unaware of the treatment administered. All the experimental procedures with mice were carried out under EU Directive 2010/63/EU and were approved by the Local Ethics Commission for Animal Experiments of Jagiellonian University in Krakow (Approval nos.:297/2019).
(§3) Compounds were injected once intraperitoneally (i.p.) 60 min before tests, at a volume of 10 mL/kg. Control animals received a vehicle injection according to the same schedule.
The FST experiment was carried out according to the method of Porsolt et al.[52] The total duration of immobility was recorded during the last 4 min of this 6 min period. The reduction of immobility time compared to the control was a measure of antidepressant properties of the tested compound. A mouse was regarded as immobile when it remained floating on water, making only small movements to keep its head above it.

[5] = tested on: punished crossings; experiment: Four-plate test (FPT) in mice; type: in vivo
Description: as §2, §3
The four-plate apparatus (Bioseb, Pinellas Park, USA) was used for tests. Following a 15 s habituation period, the animal’s motivation to explore a novel environment is suppressed by an electric foot shock (0.8 mA, 0.5 s) every time it moves from one plate to another during a 1 min test session. This action is referred to as a “punished crossing” and is followed by a 3 s shock interval, during which the animal can move across plates without receiving a shock.[53]

[6] = tested on: locomotor activity; experiment: Spontaneous locomotor activity in mice; type: in vivo
Description: as §2, §3
Locomotor activity was recorded with an Opto M3 multichannel activity monitor (Columbus Instruments, Columbus, USA). […] According to the 3Rs recommendations,[54] locomotor activity was assessed for the minimal active doses obtained in FST and/or FPT to ensure that detected antidepressant-/anxiolytic-like effects are not the result of increased motility of mice.

[7] = molecular target: T2, 5-HT7R; design: method as in PMID 29439902, PMID 29425815, PMID 28886235, PMID 26900658; conditions: earlier results for the racemic hits; read-out: 5-HT7R Ki of reference hit compounds; cited from earlier work

dopamine D2LR, sequence (P14416 whole entry): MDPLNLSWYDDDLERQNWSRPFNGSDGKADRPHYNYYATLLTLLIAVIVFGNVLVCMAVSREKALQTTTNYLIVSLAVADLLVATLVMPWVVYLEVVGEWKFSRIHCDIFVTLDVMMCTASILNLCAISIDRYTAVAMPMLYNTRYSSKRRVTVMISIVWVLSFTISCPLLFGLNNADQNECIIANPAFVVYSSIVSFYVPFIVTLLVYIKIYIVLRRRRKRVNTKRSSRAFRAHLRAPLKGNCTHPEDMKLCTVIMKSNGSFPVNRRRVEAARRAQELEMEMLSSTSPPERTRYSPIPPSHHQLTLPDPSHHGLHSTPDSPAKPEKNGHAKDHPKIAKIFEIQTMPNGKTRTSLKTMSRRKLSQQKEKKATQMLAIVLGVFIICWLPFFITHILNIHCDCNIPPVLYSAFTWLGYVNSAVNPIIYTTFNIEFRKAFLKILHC

## CC1(c2ccc(F)cc2)NC(=O)N(CC(O)CN2CCN(C(c3ccccc3)c3ccccc3)CC2)C1=O (centres unmarked) [Compound 2]
[1]
  Ki: 261 ± 38 nM
[2]
  Ki: 5570 ± 1410 nM
[3]
  Ki: 79 ± 6 nM
[4]; 0.312 mg/kg i.p.
  decrease of immobility time vs vehicle: 25%
[4]; 0.63 mg/kg i.p.
  decrease of immobility time vs vehicle: about 40%
[4]; 1.25 mg/kg i.p.
  decrease of immobility time vs vehicle: about 40%
[4]; 2.5 mg/kg i.p.
  decrease of immobility time vs vehicle: about 40%
[4]; 5 mg/kg i.p.
  decrease of immobility time vs vehicle: 26%
[5]; 2.5 mg/kg i.p.
  increase of number of punished crossings: 62%
[5]; i.p., active doses
  increase of number of punished crossings vs vehicle: about 60%
[6]; 0.312 mg/kg i.p.
  locomotor activity number of crossings ± SEM during 3–6 min: 108.00 ± 42.04; NS
  locomotor activity number of crossings ± SEM during 1 min: 9.75 ± 5.45; NS
  locomotor activity number of crossings ± SEM during 60 min: 702.75 ± 122.53; NS
[6]; 2.5 mg/kg i.p.
  locomotor activity number of crossings ± SEM during 3–6 min: 211.50 ± 29.38; NS
  locomotor activity number of crossings ± SEM during 1 min: 16.50 ± 6.12; NS
  locomotor activity number of crossings ± SEM during 60 min: 2482.75 ± 587.23; NS
[7]
  Ki: < 100 nM

From PMC11587507, “The Importance of Stereochemistry in 5-HT7R Modulation—A Case Study of Hydantoin Derivatives” (ACS Chemical Neuroscience, 2024)
